# Source: patent US12351576B2, “FGFR inhibitor, preparation method therefor and application thereof” (Abbisko Therapeutics Co., Ltd., priority 2018, dated 2025)
# Read-outs that look alike come from different tables or passages of the source.
# Legend:
# FGFR2 = FGFR2 (Homo sapiens (Human), UniProt P21802); test: In vitro biochemical kinase assay (Caliper Assay), FGFR2; conditions: enzyme 2.5 nM, ATP 1 μM, 40 minutes; read-out: Enzymatic activity IC50(nM) FGFR2
# Experimental: (§1) I. In Vitro Biochemical Kinase Assay of FGFR 1˜3
# (§2) Caliper Assay was used in the present invention to determine the inhibitory activities of the compounds against FGFR1, FGFR2, and FGFR3. The specific experimental procedure was as follows: • 1. The kinase reaction in the present invention was carried out in 384-well plates, the kinase(Carna) at a certain concentration and ATP at a certain concentration and 1 μM of peptide FAM-P22 (GL Biochem, Cat. No. 112393)) was incubated to react for a certain time at 28° C. in a reaction system consisting of 50 mM HEPES, […], 0.0015% Brij-35 and basic kinase buffer; for FGFR1, the enzyme concentration was 0.25 nM and ATP concentration was 382 μM and the reaction time was 20 minutes; for FGFR2, the enzyme concentration was 2.5 nM, ATP concentration was 1 μM, and the reaction time was 40 minutes; for FGFR3, the enzyme concentration was 8 nM, ATP concentration was 4.7 μM, and the reaction time was 30 minutes: • 2. The reaction was terminated with a stop solution (100 mM HEPES, pH 7.5, 0.2% Caliper coating, reagent, 50 mM EDTA and 0.015% Brij35); • 3. The plate with the terminated kinase reaction was transferred to the Caliper workstation to read the data; • 4. the phosphorylated and unphosphorylated peptides were separated by the Caliper microfluid migration shift technique, and the analyte was transferred by a constant buffer flow through the chip, the migration of the substrate peptide was monitored by the labeled fluorescent signal, and the kinase activity was calculated by the amount of the phosphate-based peptide formed. • 5. IC50 was determined by non-linear regression analysis of percent inhibition at different concentration level of the compound.
# FGFR3 = FGFR3 (Homo sapiens (Human), UniProt P22607); test: In vitro biochemical kinase assay (Caliper Assay), FGFR3; conditions: enzyme 8 nM, ATP 4.7 μM, 30 minutes; read-out: Enzymatic activity IC50(nM) FGFR3
# Experimental: as §1, §2
# FGFR1 = FGFR1 (Homo sapiens (Human), UniProt P11362); test: In vitro biochemical kinase assay (Caliper Assay), FGFR1; conditions: enzyme 0.25 nM, ATP 382 μM, 20 minutes; read-out: Enzymatic activity IC50(nM) FGFR1
# Experimental: as §1, §2
# [1] = system: Snu-16 gastric cancer cells (FGFR2 gene amplification); test: Cell proliferation assay (Cell Titer Glo), Snu-16; assay type: cell-based; conditions: Homo sapiens, SNU-16, 72 h, Snu-16 cells, 3 days, CTG, read-out: Cellular IC50 (nM) Sun16
# Experimental: (§3) II. Cell Proliferation Assay (Cell Titer Glo(CTG) Assay)
# (§4) The FGFR signal pathway dependent inhibitory effect of the compound in the present invention on cell proliferation was assessed by survival test using CTG reagent (Promega, 4G7573). Cell lines representative of a variety of tumor types, including H1581 lung cancer cells (FGFR1 gene amplification), Snu-16 gastric cancer cells (FGFR2 gene amplification), and RT112 bladder carcinoma cells (FGFR3-TACC3 fusion) from Nanjing Cobioer Biosciences, were selected for the assay. The specific experimental procedure was as follows: • 1. 90 μL of cells were seeded into a 96-well plate processed with TCM (Costar 43904), and incubated overnight at 37° C. in a 5% CO2 incubator; afterwards, 10 μL of the culture medium containing the compound at 10 fold of its final concentration was added; • 2. The dose-dependent effect was evaluated by a serial dilution of the test compound, starting from 10 μM or a lower concentration. • 3. The cells were incubated at 37° C. under 5% C02 for 3 days, then added 50 μL CTG, and read the data with Envision (Pelkin Elmer) to quantify the ATP level in the cells. The ATP levels in cells with treatment of inhibitor at a variety of concentrations were compared with those in cells of the control group (in which DMSO was added into the medium) to evaluate the compound percent inhibition of cell proliferation/survival. • 4. The compound half growth inhibitory concentration (IC50) was determined in Graphpad Prism by 4-parameter curve fitting.
# [2] = system: H1581 lung cancer cells (FGFR1 gene amplification); test: Cell proliferation assay (Cell Titer Glo), H1581; assay type: cell-based; conditions: 3 days, CTG, read-out: Cellular IC50 (nM) H1581
# Experimental: as §3, §4
# [3] = system: RT112 bladder carcinoma cells (FGFR3-TACC3 fusion); test: Cell proliferation assay (Cell Titer Glo), RT112; assay type: cell-based; conditions: Homo sapiens, RT-112, 72 h, 3 days, CTG, read-out: Cellular IC50 (nM) RT112
# Experimental: as §3, §4
# Sequence of FGFR2 (P21802 22-821): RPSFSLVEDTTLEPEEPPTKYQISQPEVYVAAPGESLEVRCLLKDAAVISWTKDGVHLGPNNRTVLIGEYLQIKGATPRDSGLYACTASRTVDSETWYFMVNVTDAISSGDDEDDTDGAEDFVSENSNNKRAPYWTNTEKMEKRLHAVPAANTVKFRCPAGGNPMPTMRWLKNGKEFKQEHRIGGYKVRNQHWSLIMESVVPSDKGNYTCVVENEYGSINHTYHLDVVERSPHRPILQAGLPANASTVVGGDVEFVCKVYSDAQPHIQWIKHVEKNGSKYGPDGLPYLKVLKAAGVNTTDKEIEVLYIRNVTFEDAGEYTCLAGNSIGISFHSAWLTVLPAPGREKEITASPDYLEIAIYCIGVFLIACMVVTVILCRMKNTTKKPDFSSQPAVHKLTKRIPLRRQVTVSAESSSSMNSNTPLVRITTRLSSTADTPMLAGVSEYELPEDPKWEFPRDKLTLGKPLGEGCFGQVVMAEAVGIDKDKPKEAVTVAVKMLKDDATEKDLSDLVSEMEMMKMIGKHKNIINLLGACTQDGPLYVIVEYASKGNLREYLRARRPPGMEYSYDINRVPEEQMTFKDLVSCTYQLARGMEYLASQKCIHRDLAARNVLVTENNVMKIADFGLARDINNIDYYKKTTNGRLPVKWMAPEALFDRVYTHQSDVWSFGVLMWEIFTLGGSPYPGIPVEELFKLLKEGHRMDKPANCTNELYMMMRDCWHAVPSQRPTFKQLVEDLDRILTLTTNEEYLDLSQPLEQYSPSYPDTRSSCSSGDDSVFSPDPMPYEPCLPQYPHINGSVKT
# Sequence of FGFR3 (P22607 23-806): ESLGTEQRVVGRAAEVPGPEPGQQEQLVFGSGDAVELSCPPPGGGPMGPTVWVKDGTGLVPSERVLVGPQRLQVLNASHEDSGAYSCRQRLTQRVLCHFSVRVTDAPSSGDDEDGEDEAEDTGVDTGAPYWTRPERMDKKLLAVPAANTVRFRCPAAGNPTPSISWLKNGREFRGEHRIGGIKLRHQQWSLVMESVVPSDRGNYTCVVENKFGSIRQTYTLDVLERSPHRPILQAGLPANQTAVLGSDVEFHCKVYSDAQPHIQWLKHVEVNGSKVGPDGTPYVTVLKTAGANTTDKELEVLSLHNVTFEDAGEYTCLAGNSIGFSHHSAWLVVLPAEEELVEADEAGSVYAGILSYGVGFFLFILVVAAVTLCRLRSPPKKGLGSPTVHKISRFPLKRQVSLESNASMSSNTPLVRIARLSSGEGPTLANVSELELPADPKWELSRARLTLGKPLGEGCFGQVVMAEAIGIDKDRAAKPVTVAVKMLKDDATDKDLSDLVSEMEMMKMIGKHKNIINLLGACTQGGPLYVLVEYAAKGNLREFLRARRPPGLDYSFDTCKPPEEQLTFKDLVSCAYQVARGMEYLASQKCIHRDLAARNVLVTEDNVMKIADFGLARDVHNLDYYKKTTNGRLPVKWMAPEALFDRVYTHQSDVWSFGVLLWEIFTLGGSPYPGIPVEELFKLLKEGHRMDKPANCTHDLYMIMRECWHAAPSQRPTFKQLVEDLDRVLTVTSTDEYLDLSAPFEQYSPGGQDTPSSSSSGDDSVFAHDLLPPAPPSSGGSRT
# Sequence of FGFR1 (P11362 22-822): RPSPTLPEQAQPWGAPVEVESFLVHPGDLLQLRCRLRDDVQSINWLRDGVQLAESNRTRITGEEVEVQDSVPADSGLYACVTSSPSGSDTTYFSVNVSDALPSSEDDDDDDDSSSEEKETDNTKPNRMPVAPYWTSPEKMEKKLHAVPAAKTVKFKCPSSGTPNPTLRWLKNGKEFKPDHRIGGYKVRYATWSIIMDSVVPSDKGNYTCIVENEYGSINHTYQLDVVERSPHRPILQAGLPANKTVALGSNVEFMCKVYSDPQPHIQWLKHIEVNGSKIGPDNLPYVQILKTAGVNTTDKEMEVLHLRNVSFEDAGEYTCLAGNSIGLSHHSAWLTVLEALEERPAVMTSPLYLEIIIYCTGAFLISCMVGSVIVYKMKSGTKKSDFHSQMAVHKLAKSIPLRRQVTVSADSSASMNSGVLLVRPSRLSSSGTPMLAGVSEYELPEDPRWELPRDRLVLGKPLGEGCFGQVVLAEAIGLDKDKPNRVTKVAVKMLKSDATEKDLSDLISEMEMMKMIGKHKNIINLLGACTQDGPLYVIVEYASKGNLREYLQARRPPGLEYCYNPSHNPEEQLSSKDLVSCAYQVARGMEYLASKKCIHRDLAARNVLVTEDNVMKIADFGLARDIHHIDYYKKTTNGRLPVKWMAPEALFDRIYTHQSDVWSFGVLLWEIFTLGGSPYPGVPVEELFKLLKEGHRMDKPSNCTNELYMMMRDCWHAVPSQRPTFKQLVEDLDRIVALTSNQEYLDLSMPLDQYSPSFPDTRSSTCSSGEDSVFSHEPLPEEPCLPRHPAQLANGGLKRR
SMILES,IC50 (FGFR2) [nM],IC50 (FGFR3) [nM],IC50 (FGFR1) [nM],IC50 [1] [nM],IC50 [2] [nM],IC50 [3] [nM],"IC50 ([2]; Homo sapiens, NCI-H1581, 72 h) [nM]",IC50 ([1]; numeric values) [nM],IC50 ([3]; numeric values) [nM]
"COc1cc(OC)c(Cl)c(-c2cc3cnc(-c4cnn(C)c4)cc3n(C3CCOC3)c2=O)c1Cl (stereo in doubt) [Example 21, (R)-3-(2,6-dichloro-3,5-dimethoxyphenyl)-7-(1-methyl-1H-pyrazol-4-yl)-1-(tetrahydrofuran-3-yl)-1,6-naphthyridin-2(1H)-one]",≤ 5,≤ 5,5 to 10,5 to 10,50 to 500,–,–,–,–
"COc1cc(OC)c(Cl)c(-c2cc3cnc(-c4cnn(C)c4)cc3n(C)c2=O)c1Cl [Example 2, 3-(2,6-dichloro-3,5-dimethoxyphenyl)-1-methyl-7-(1-methyl-1H-pyrazol-4-yl)-1,6-naphthyridin-2(1H)-one]",5 to 10,50 to 500,10 to 50,10 to 50,–,50 to 500,50 to 500,–,–
"CCn1c(=O)c(-c2c(Cl)c(OC)cc(OC)c2Cl)cc2cnc(-c3cnn(CCN4CCOCC4)c3)cc21 [Example 10, 3-(2,6-dichloro-3,5-dimethoxyphenyl)-1-ethyl-7-(1-(2-morpholinoethyl)-1H-pyrazol-4-yl)-1,6-naphthyridin-2(1H)-one]",≤ 5,≤ 5,10 to 50,10 to 50,–,10 to 50,50 to 500,–,–
"COc1cc(OC)c(Cl)c(-c2cc3cnc(-c4cnn(CCN5CCOCC5)c4)cc3n(C)c2=O)c1Cl [Example 15, 3-(2,6-dichloro-3,5-dimethoxyphenyl)-1-methyl-7-(1-(2-morpholinoethyl)-1H-pyrazol-4-yl)-1,6-naphthyridin-2(1H)-one]",5 to 10,50 to 500,50 to 500,10 to 50,–,50 to 500,50 to 500,–,–
"COc1cc(OC)c(F)c(-c2cc3cnc(-c4ccc(C5(C#N)CCC5)nc4)cc3n(C3CCOC3)c2=O)c1F (stereo not shown) [Example 32, 1-(5-(3-(2,6-difluoro-3,5-dimethoxyphenyl)-2-oxo-1-(tetrahydrofuran-3-yl)-1,2-dihydro-1,6-naphthyridin-7-yl)pyridin-2-yl)cyclobutane-1-carbonitrile]",≤ 5,–,5 to 10,–,–,–,50 to 500,10.7,2.5
